Experimental data reported in patent US6593365B1, “Diflunisal esters and related compounds” (The University of Queensland, priority 1997, dated 2003).
Values joined by “and” are separate entries in the source; they are usually repeats but may differ in a detail not shown here. Equal values may be shown once. Read-outs that look alike come from different tables or passages of the source. Each block holds one molecule with its values, some of them ahead of it.

Tests used:
[1] = test system: superoxide generated from xanthine oxidase plus xanthine reaction; assay: Xanthine oxidase plus xanthine-induced chemiluminescence; type: biochemical; set-up: dose or concentration left out as unconfirmed; conditions: X: CL induced by xanthine oxidase plus xanthine
Protocol: To clarify the role of aspirin analogues and diflunisal esters in free radicals scavenging, the Fenton's reagent was replaced by an artificial superoxide generating system in the CL inhibition studies. This cell-free system consisted of 100 μg/mL of xanthine oxidase (Sigma) plus 0.5 μM xanthine (Sigma) (Rosen and Klebanoff, 1976, J Clin Invest 58 50-60; Cheson et al., 1976, J Clin Invest 58 789-796).
(§1) CL measurements were always done in triplicate and Student's t-test used to assess the statistical significance of the difference between measurements.

[2] = test system: human platelet rich plasma; assay: Platelet aggregation induced by arachidonic acid; type: cell-based; conditions: compound 600 µM, 37° C., arachidonic acid 200 µM
Protocol: Platelet aggregation studies were carried out using a single channel Lumiaggregometer (Chrono-Log Company, Haverton, Pa.) at 37° C. using human platelet-rich and platelet-poor plasma. Platelet-rich plasma (PRP) with a platelet concentration of […] (measured with a Coulter counter) was prepared by centrifuging 3.8% citrated […] (1:9) at 1,500 rpm using a (Beckman) benchtop centrifuge at room temperature for 15 minutes. Platelet-poor plasma (PPP) was prepared by further centrifuging residual blood from platelet-rich plasma at 3,000 rpm for 30 minutes. Platelet-poor plasma was also confirmed b y Coulter counting for platelet content.
Platelet aggregation studies were preceded by pipetting 0.4 mL platelet-rich plasma into a stirred aggregometer tube and calibrate to 90% of recorder. Platelet-poor plasma was set to calibrate at 10% of recorder. Platelet aggregation was initiated by the addition of a arachidonic acid (Sigma) or ADP (Sigma).
10 mM solutions of each compound (TABLE 6) were prepared in 1 mL of normal saline solution (containing 4% BSA) before use. An aliquot (400 μL) of platelet-rich plasma was pipetted into a stirred aggregometer tube at 37° C. and 30 μL of test sample added simultaneously. This mixture was preincubated for varying period (3 to 45 minutes), then arachidonic acid (AA) was added (final conc.=200 μM) to initiate platelet aggregation. If no aggregation occurred, 20 μM ADP was added to confirm the vitality of the platelets (if the platelets are vital, ADP will induce this AA-test sample-plasma mixture to aggregate). This procedure is necessary to investigate whether the non-aggregation phenomenon is due to drug inhibition or simply due to inviable platelets (unable to respond to AA). The degree of aggregation was measure by calculating the area under the turbidimetric response curve (AUC).

[3] = test system: OH. generated from Fenton's reaction; assay: Luminol-dependent chemiluminescence induced by Fenton's reagent; type: biochemical; set-up: unit of the concentration uncertain; conditions: F: CL induced by Fenton's reagent, n=3
Protocol: CL was measured with a luminometer (Model 1250; LKB Wallac, Finland) and recorded in millivolts (Cheung et al., 1984, supra).
Fenton's reagent (FeSO4 and H2O2) was used as a standard reaction mixture for the generation of OH. (Lai and Piette, 1979, Tetrahedron Lett. 775-778):
Fe^+++H2O2→Fe^++++OH.+OH (1)
The initial reaction mixture consisted of 20 μL of 3.8 mM FeSO4.7H2O, 20 μL of 5 mg/mL luminol (Sigma), and 2 mL of 1 mM phosphate buffer in a 3 mL polystyrene cuvette. Twenty microlitres of 320 mM H2O2 was added to initiate the Fenton's reaction.
A known concentration of the ethanolic (≲1%) aspirin analogue or diflunisal ester's stock solution was added to the 1 mM phosphate buffer to prepare solutions with a final concentration of 50 μM, 250 μM or 500 μM. Twenty microlitres of these test samples was added onto the cuvette which contained the initial reaction mixture. H2O2 was added to induce CL reaction. The luminol-dependent CL response was recorded in mV by a potentiometric recorder.
as §1

[4] = test system: ischaemic/reperfusion rat livers; assay: Ischaemic/reperfusion injury in rat livers (LDH release, bile production); set-up: species or system Female Sprague-Dawley rats; conditions: C is the ED50 molar dose
Protocol: Female Sprague-Dawley rats (220-250 g) were anaesthetised by interperitoneal injection of pentobarbital sodium (60 mg/kg, Boehringer Ingelhein). […] The bile duct was cannulated with a polyethylene tubing (PE-10, I.D. 0.28 mm; Clay Adams, New Jersey) and bile was collected into pre-weighed microcentrifuge tubes at 70 min intervals (in the middle of experiment and the end of experiment). The portal vein was then cannulated using a 16 G intravenous catheter and the liver was perfused via this cannula with 2% BSA Krebs-Henseleit bicarbonate buffer (pH 7.4) and oxygenated using a membrane oxygenator comprising of silastic tubing and ventilated with carbogen (95% O2/5% CO2). The perfusion system used was recirculating and employed a peristaltic pump (Cole-Parmer, Illinois).
Following a 10 min pre-ischaemia perfusion, the perfusion flow was stopped for 30 min at 37° C. with the liver being kept moist. At the end of this ischaemic phase, a known concentration of the aspirin analogue or diflunisal ester's solution (in 2% BSA Krebs-Henseleit buffer) was added into the perfusate prior to the perfusion being resumed for another 100 min. Outflow fractions were collected up to 140 min. A biochemistry autoanalyzer (Hitachi, model 747; Tokyo, Japan) was employed to determine the level of enzyme (LDH) release.
The degree of ischaemic/reperfusion injury was measured by calculating the area under the LDH release ([…]) versus time curve (AUC). […] The efficacy of each compound is expressed in terms of ED50 which represents the molar dose for 50% reduction of LDH release compared to the control. The comparison of bile production between the first stage of experiment (the first 70 min) and the second stage of experiment (the last 70 min) is also used as index of liver function during an experiment.

[5] = In vitro non-enzymatic hydrolysis in Krebs-Henseleit buffer; type: physicochemical; conditions: for Hydrolysis rate constant (k): pH 7.4, 25° C., n=5; for half-life: pH 7.4, read-out: Half life (t1/2) (converted)
Protocol: These experiments were carried out both in Krebs-Henseleit buffer containing either no protein or 2% w/v BSA (bovine serum albumin, fraction V, Sigma) at pH 7.4 and 25±1° C.
Solutions of the derivatives in Krebs buffer (10 mL) was prepared in siliconised glass tubes. Each solution was sonicated for 5 minutes and centrifuged for 5 minutes (3000 g) at 25° C. to ensure maximum dissolution and to sediment any undissolved precipitate. About 7.5 mL of the supernatant was then transferred to a clean siliconised test tube and a 100 μL aliquot was removed and assayed. […] The rate of non-enzymatic hydrolysis (k) for each derivative was then estimated using the following equation: […]
where C1 is the concentration of the ester at any time (t), and C0 is the concentration of the ester at time zero. The half-life (t½) was determined using the formula: […]

[6] = test system: in-situ perfused rat liver; assay: In-situ rat liver perfusion bolus studies, moments and dispersion model analysis (Example 3); type: in vitro ADME, Sprague-Dawley rats; conditions: for CV^2 of reference solute / F (hepatic availability) of reference solute / MTT of reference solute: statistical moments analysis, n=12; for MTTE (mean transit time of blood): MTTE=MTTW/(+1), =0.59
Protocol: Mature female Sprague-Dawley rats were obtained from the University of Queensland Animal Breeding Facility and weighed between 180-270 grams. The animals were given access to a standard laboratory diet prior to experiment. Rats were anaesthetised by interperitoneal injection of pentobarbital sodium (60 mg/kg, Boehringer Ingelhein). […] The bile duct was cannulated with PE10 (Clay Adams, New Jersey). 0.025 gm/L taurocholic acid (Sigma Co., USA.) was dissolved in perfusate to stimulate bile production. The portal vein was then cannulated using a 16 G intravenous catheter and the liver was perfused via this cannula with 2% BSA Krebs-Henseleit bicarbonate buffer (pH 7.4) and oxygenated using a silastic tubing lung ventilated with carbogen (95% O2/5% CO2). The perfusion system used was non-recirculating and employed a peristaltic pump (Cole-Parmer, Illinois).
The animal was placed in a temperature controlled perfusion cabinet at 37° C. Liver viability was assessed by oxygen consumption, bile flow, diflunisal esters' extraction and macroscopic appearance.
Perfusions were made at 30 mL/min in each liver. After a 10 minute perfusion stabilization period, injectate (50 μL) containing Evans Blue (3 mg/mL) and [^3H]-water in a saturated solution of the particular O-acyl diflunisal ester or pregenerated diflunisal (which was injected as parent compound) in 2% BSA Krebs-Henseleit buffer, was injected into the liver with outlet samples collected via a fraction collector over one minute.
Aliquots (100 μL) of pooled perfusate samples were taken for Evans Blue spectrophotometric analysis and [^3H]-water scintillation counting before adjusting pH. These pooled samples were then acidified to pH 2.0 by addition of 1 M HCl and extracted into 2.5 volumes of ether. […] The ether fraction was then removed and reduced to approximately 100 μL by evaporation under air and prepared as before for HPLC analysis. A known concentration of each buffer solution of ester was concurrently extracted and assayed with the perfusate samples to assess the degree of spontaneous hydrolysis occurring over the duration of the extraction procedure. This non-enzymatic hydrolysis was converted for in the analysis. The total recovery of diflunisal esters extracted using this technique was >90%.
The F, MTT and CV^2 for the diflunisal esters (or pregenerated DF) and the reference solutes (EB and [^3H]-water) were determined from the outflow concentration versus time profile using equation (1)-(4), with the assistance of the Moments Calculator 2.2 program for Macintosh computer developed by Robert Purves (Purves RD, 1994, J. Pharm. Sci. 83 202-205). [formula] [formula]
where Q is the perfusate flow rate, D is the dose of diflunisal esters administered. The area under the concentration-time curve (AUC) and the first moment curve (AUMC) were estimated by the trapezoidal rule integration with appropriate modification for tail (Mellick et al., 1996, submitted for publication). [formula]
The moment data was further examined using the dispersion model of hepatic elimination which defines F of an extracted solute by the equation (Roberts et al., 1990, J. Pharmacokin. Biopharm. 18 209-234): [formula]
a={square root over (1+4RNDN)} (6)
DN is the dispersion number which describes the spread of solute residence times in the liver following bolus input and equal half the normalized variance for a non-extracted reference indicator [formula]
RN is the efficiency number which characterises the elimination of solute by the liver and is defined by the equation: [formula]
(Gillette, 1971, Ann. N. Acad. Sci. 179 43-61)), and Q is the perfusate flow rate. If F for a solute and the CV^2 for a non-extracted reference solute (eg. EB) are known, we can solve for “a” using equation (5) and then for “RN” using equation (6).
The dispersion model expressions (Roberts et al., 1990) for MTT and CV^2 are presented in equations (8) and (9). [formula] [formula] […]

[7] = fitting to one-compartment dispersion model, individual curves 1-12 and Mean S.E. (n = 12)
[8] = fitting to one-compartment dispersion model, individual curves 1-12 and Mean S.E. (n = 12), listed as 3H -water

CL inhibition (%) [1]: 0.9 ± 0.1%
SMILES: CCCCCCC(=O)Oc1ccc(-c2ccc(F)cc2F)cc1C(=O)O [Compound C7D, n-heptanoyldiflunisal]
Platelet Aggregation (% of control) ([2]; preincubation 3 minutes): 97.5 ± 0.9 % of control | Platelet Aggregation (% of control) ([2]; preincubation 5 minutes): 96.3 ± 1.1 % of control | Platelet Aggregation (% of control) ([2]; preincubation 8 minutes): 91.4 ± 0.1 % of control | Platelet Aggregation (% of control) ([2]; preincubation 10 minutes): 91.1 ± 2.1 % of control | Platelet Aggregation (% of control) ([2]; preincubation 12 minutes): 90.8 ± 0.8 % of control | Platelet Aggregation (% of control) ([2]; preincubation 15 minutes): 89.7 ± 2.1 % of control | Platelet Aggregation (% of control) ([2]; preincubation 20 minutes): 77.3 ± 3.1 % of control | Platelet Aggregation (% of control) ([2]; preincubation 25 minutes): 57.3 ± 0.1 % of control | Platelet Aggregation (% of control) ([2]; preincubation 45 minutes): 0 % of control | CL inhibition (%) ([3]; 0.5 (unit uncertain) compound, U = undetectable): 21.3 ± 3.7% | CL inhibition (%) ([3]; 2.5 (unit uncertain) compound): 57.3 ± 1.9% | CL inhibition (%) ([3]; 5 (unit uncertain) compound): 87.4 ± 3.4% | log 1/C [4]: 4.52

Hydrolysis rate constant (k) ([5]; Krebs-Henseleit buffer 0% BSA, U = Undetectable): 0.0052 ± 0.0032 hour^1 | Hydrolysis rate constant (k) ([5]; Krebs-Henseleit buffer 2% BSA): 0.0013 ± 0.0005 hour^1 | half-life ([5]; bovine, Krebs-Henseleit buffer with 2% w/v BSA): 22.2 days | half-life ([5]; protein-free Krebs-Henseleit buffer, Krebs-Henseleit buffer 0% BSA, first half life, t1/2=0.693/k, U = Undetectable): 5.55 days
SMILES: CCCCCCC(=O)Oc1ccccc1C(=O)O [Compound C7SA, n-heptanoylsalicylic acid]

CV^2 of reference solute [6]: 1.15±0.11 | F (hepatic availability) of reference solute [6]: 0.95±0.04 | MTT of reference solute [6]: 9.04 ± 0.65 s
SMILES: Cc1cc(-c2ccc(/N=N/c3ccc4c(S(=O)(=O)O)cc(S(=O)(=O)O)c(N)c4c3O)c(C)c2)ccc1/N=N/c1ccc2c(S(=O)(=O)O)cc(S(=O)(=O)O)c(N)c2c1O [EB]

MTTE (mean transit time of blood) ([6]; individual curves 1-12 and Mean S.E. (n = 12)): 7.36 ± 0.87 s | DN (dispersion number) [6, 7]: 0.29±0.03 | MTTW (mean transit time of the whole liver) [6, 7]: 11.70 ± 1.39 s | DN (dispersion number) ([6]; from CV^2 of the moments analysis): 0.36±0.04 | CV^2 of reference solute [6]: 0.71±0.08 | F (hepatic availability) of reference solute [6]: 0.87±0.02 | MTT of reference solute [6]: 14.42 ± 0.79 s
SMILES: [3H]O[3H] [[^3H]-water]
MTTE (mean transit time of blood) ([6]; individual curves 1-12 and Mean S.E. (n = 12), listed as 3H -water): 10.09 s and 9.52 s and 11.67 s and 13.40 s and 5.11 s and 4.99 s and 4.23 s and 4.95 s and 6.39 s and 6.33 s and 5.52 s and 6.08 s | DN (dispersion number) [6, 8]: 0.33 and 0.23 (3×) and 0.27 and 0.36 and 0.22 and 0.58 and 0.24 (2×) and 0.26 | MTTW (mean transit time of the whole liver) [6, 8]: 16.05 s and 15.15 s and 18.56 s and 21.31 s and 8.12 s and 7.94 s and 6.73 s and 7.87 s and 10.16 s and 10.07 s and 8.78 s and 9.66 s
